Assay results: patent US9011853B2, “B7-H4 fusion proteins and methods of use thereof” (Amplimmune, Inc., priority 2009, dated 2015)
Several values for one entry are separate records, joined by “and”; a condition that tells them apart may be missing. Equal values may be shown once.

What was measured:
[1] = tested on: DBA/1 mice; assay: Therapeutic CIA study AA#80 (male mice), disease score; type: in vivo, mouse; conditions: for clinical score: individual mice sampled for serum analysis; for AA#80 CIA disease scores: individual mice (Tag #)
Protocol: DBA/1 mice (10 per group) aged 7-9 weeks were used for the CIA model. Mice from several vendors (Jackson Laboratories, Harlan Laboratories, and Taconic Farms) were tested and it was determined that Taconic mice are most appropriate for the CIA studies. Taconic mice develop more consistent and severe disease symptoms and show continued disease progression, while mice from the other vendors often show stable, less severe disease, even in the absence of treatment. female (F) mice in AA#79 and male (M) mice in AA#80, were tested to determine which gender to use in future experiments.
On the day before the study is initiated, the hair on the right flank of each mouse was removed using an electric clipper. A metal identification tag was placed on the right ear of each mouse. On Day 0, mice were immunized with 100 μL of chicken collagen type II/Complete Freund's Adjuvant (CII/CFA) emulsion in the right flank. On Day 20, the hair on the left flank of each mouse was removed using an electric clipper, and on Day 21, mice were immunized with 100 μL of chicken collagen type II/Incomplete Freund's Adjuvant (CII/IFA) emulsion in the left flank. Pre-filled syringes of CII/CFA and CII/IFA emulsion purchased from Hooke Laboratories were used to ensure consistent dosing with and potency of the immunogen.
Early arthritis symptoms, such as erythema and mild swelling, usually appear on Day 21, and on Day 28, more severe symptoms such as swelling in many digits and inflammation extending to the tarsal joint are typically present. Each limb is evaluated for severity of arthritis symptoms three times a week using a widely accepted arthritis severity score system, shown in Table 2. The scores from each of the 4 limbs are summed to yield the disease score of each mouse. […]
Treatment was initiated when the average disease score for the study animals was greater than four. This corresponded to Day 29 in AA#79 and Day 24 in […]. By waiting until animals are symptomatic, it was ensured that the model is performed in a therapeutic rather than prophylactic mode.
B7-H4-Ig, RPA110010, and murine B7-H4-Ig proteins were administered by intraperitoneal (IP) injection 3 times a week for a total of 8 doses. RPA110010 is an extracellular domain variant of B7-H4-Ig, SEQ ID NO:126. Control murine and human IgG proteins were given once a week for a total of 3 doses. […] All proteins were diluted to the desired concentration (500 μg in 500 μL, or 1 mg/mL) with sterile PBS immediately before injection. Vehicle control mice receive Amplimmune formulation buffer diluted 1:10 in PBS, with an injection volume of 500 μL.

[2] = tested on: serum levels of 58 analytes; assay: Serum biomarker analysis, quantitative immunoassay multi-analyte profiling (Rules-Based Medicine RodentMAP v2.9), AA#80; type: in vivo, mouse; conditions: serum
Protocol: In AA#80, serum samples were collected on Day 27, Day 34, Day 41 and Day 55 via the submandibular vein. Approximately 200 μL of blood per mouse was collected in Microtainer® serum separator tubes. Serum was removed following centrifugation and stored at <−65° C. until analysis.
Selected serum samples were sent to Rules-Based Medicine (Austin, Tex.) for quantitative immunoassay multi-analyte profiling of serum samples, with the goal of identifying biomarkers that could be used to monitor disease progression and response to B7-H4-Ig treatment. Day 27, Day 34, and Day 41 sera from the three representative mice in the B7-H4-Ig group (tag #3332, 3334, and 3338) and three representative mice in the Synagis® group (tag #3324, 3329, and 3330) were analyzed for levels of 58 analytes using the RodentMAP v2.9 Testing Service.
Data from the Rules-Based Medicine analysis was analyzed using Microsoft Excel and GraphPad Prism software. T-tests were performed to compare the levels of each analyte in the B7-H4-Ig versus Synagis® treated samples. No correction was made for multiple comparisons. Additionally, correlation coefficients were calculated for each analyte versus disease score.

Human B7-H4-Ig: human B7-H4 extracellular domain fused to hinge, CH2 and CH3 regions of human immunoglobulin Cγ1 chain; representative SEQ ID NOs:114-137
clinical score ([1]; Day 27): 2 (2×) and 3 | clinical score ([1]; Day 34): 5 and 4 | clinical score ([1]; Day 41): 9 (2×) and 6 | AA#80 CIA disease scores ([1]; Study Day 20): 4 (2×) and 2 (3×) and 3 (2×) and 5 (2×) | AA#80 CIA disease scores ([1]; Study Day 22): 4 (4×) and 3 and 5 (4×) | AA#80 CIA disease scores ([1]; Study Day 24): 4 (3×) and 5 (5×) and 2 | AA#80 CIA disease scores ([1]; Study Day 27): 3 (3×) and 2 (5×) and 4 | AA#80 CIA disease scores ([1]; Study Day 29): 2 (5×) and 3 and 1 and 5 (2×) | AA#80 CIA disease scores ([1]; Study Day 31): 2 (4×) and 3 and 1 and 4 (2×) and 5 | AA#80 CIA disease scores ([1]; Study Day 34): 2 (2×) and 5 (3×) and 1 and 4 (2×) and 6 | AA#80 CIA disease scores ([1]; Study Day 36): 3 and 7 (3×) and 4 (3×) and 5 and 6 | AA#80 CIA disease scores ([1]; Study Day 38): 3 (4×) and 7 and 9 and 5 and 6 and 10 and 12 | AA#80 CIA disease scores ([1]; Study Day 41): 4 and 9 (5×) and 6 and 10 and 13 | AA#80 CIA disease scores ([1]; Study Day 44): 3 and 11 (3×) and 8 and 9 and 12 and 14 and 4 | SAP (Serum Amyloid P): Human LgG1 control vs. human B7-H4 Ig, ALL ([2]; p of difference between groups, ALL): 0.26 | SAP (Serum Amyloid P): Human LgG1 control vs. human B7-H4 Ig, D 27 ([2]; p of difference between groups, D 27): 0.32 | SAP (Serum Amyloid P): Human LgG1 control vs. human B7-H4 Ig, D 34 ([2]; p of difference between groups, D 34): 0.50 | SAP (Serum Amyloid P): Human LgG1 control vs. human B7-H4 Ig, D 41 ([2]; p of difference between groups, D 41): 0.13 | M-CSF (Macrophage-Colony Stimulating Factor) ([2]; Day 27, LDD 0.01795): 6.88 ng/mL and 6.51 ng/mL and 6.21 ng/mL | MIP-1gamma (Macrophage Inflammatory Protein-1gamma) ([2]; Day 27, LDD 0.0736): 43.2 ng/mL and 38.6 ng/mL and 32.1 ng/mL | TNF-alpha (Tumor Necrosis Factor-alpha) ([2]; Day 27, LDD 0.137): <low> | TEMP-1 (Tissue Inhibitor of Metalicproteinase Type-1) ([2]; Day 27, LDD 0.18): 1.38 ng/mL and 1.31 ng/mL and 1.14 ng/mL | IL-5 (Interleukin-5) ([2]; Day 27, LDD 0.194): 0.474 ng/mL and 0.333 ng/mL | MIP-1alpha (Macrophage Inflammatory Protein-1alpha) ([2]; Day 27, LDD 0.2255): 2.83 ng/mL and 3.13 ng/mL and 3.03 ng/mL | MIP-3beta (Macrophage Inflammatory Protein-3beta) ([2]; Day 27, LDD 0.465): 2.6 ng/mL and 2.79 ng/mL and 2.52 ng/mL | Tissue Factor ([2]; Day 27, LDD 0.5175): 8.32 ng/mL and 11.7 ng/mL and 10 ng/mL | MPO (Myeloperoxidase) ([2]; Day 27, LDD 0.95): 245 ng/mL and 227 ng/mL and 191 ng/mL | SGOT (Serum Glutamic-Oxaloacetic Transaminase) ([2]; Day 27, LDD 1.86): 74.3 µg/mL and 84.6 µg/mL and 94.3 µg/mL | TPO (Thromboproletin) ([2]; Day 27, LDD 2.66): 38 ng/mL and 39.8 ng/mL and 34.2 ng/mL | SAP (Setrum Amtyloid P) ([2]; Day 27, LDD 5.4): 41 µg/mL and 39.5 µg/mL and 30.7 µg/mL | MIP-2 (Macrophage Inflammatory Protein-2) ([2]; Day 27, LDD 7.174): 20.9 pg/mL and 16.3 pg/mL and 21.6 pg/mL | MMP-9 (Matrix Metalloproteinase-9) ([2]; Day 27, LDD 10): 266 ng/mL and 140 ng/mL | MCP-1 (Monocyte Chemoattractant Protein-1) ([2]; Day 27, LDD 16.924): 72.6 pg/mL and 55.4 pg/mL and 66.9 pg/mL | VCAM-1 (Vescular Cell Adhesion Molecule-1) ([2]; Day 27, LDD 19): 2250 ng/mL and 2120 ng/mL and 2130 ng/mL | MDC (Macrophage-Derived Chemokine) ([2]; Day 27, LDD 21.85): 1250 pg/mL and 1110 pg/mL and 1040 pg/mL | Myoglobin ([2]; Day 27, LDD 24): 17.5 ng/mL and 12.1 ng/mL and 9.69 ng/mL | MCP-3 (Monocyte Chemoattractant Protein-3) ([2]; Day 27, LDD 31.36): 160 pg/mL and 120 pg/mL and 129 pg/mL | VEGF (Vescular Endotheial Cell Growth Factor) ([2]; Day 27, LDD 38.2): 150 pg/mL and 128 pg/mL and 160 pg/mL | IP-10 (Inducible Protein-10) ([2]; Day 27, LDD 40.28): 57.3 pg/mL and 55.5 pg/mL and 38.6 pg/mL | LIF (Leukemia Infabitory Factor) ([2]; Day 27, LDD 43.6): 1540 pg/mL and 1500 pg/mL | MCP-5 (Monocyte Chemoattractant Protein-5) ([2]; Day 27, LDD 46.38): 41.4 pg/mL and 33.8 pg/mL and 29.4 pg/mL | SCF (Stem Cell Factor) ([2]; Day 27, LDD 75.17): 204 pg/mL and 194 pg/mL and 275 pg/mL
